Assay [1] deals with basal gastric acid secretion. The assay can be described thus: Inhibition of basal gastric acid secretion in the Acute Gastric Fistula Rat. The settings on record: 1 h, intraduodenal 10 mg./kg., after 60 minutes, read-out: % Inhibition of Total Acid or Output. The format is in vivo, Female Sprague-Dawley rats. The procedure:
Inhibition of basal gastric acid secretion can be determined by the following procedure. Female Sprague-Dawley rats weighing 140-160 grams are fastened in individual cages for 18-24 hours. The rats are then lightly anesthetized with ether and their front teeth extracted to avoid destruction of the plastic cannula. A midline incision is then made and the stomach and duodenum exposed. A flanged polyvinyl tube is inserted into the fundic portion of the stomach and secured with a purse string suture line using 4-O Mersilene. The rat is then dosed by injection of the compound into the duodenum (1.0 ml. per 100 gram body weight). After dosing, the abdominal wall and skin are closed using metal wound clips. The rat is replaced in a cage containing a longitudinal slit to allow the polyvinyl tube to hang freely. An 8 ml. plastic collecting tube is attached to the flanged cannula and hangs freely below the cage. The first 30 minute sample is discarded designating this time as zero. The collecting tube is attached again and samples removed at the end of 60 and/or 120 minutes. The hourly samples are then transferred to a 15 ml. centrifuge and centrifuged for 5-10 minutes. Total and sediment volume are then recorded with supernatent volume being used as volume of secretion. A 1 ml. or less aliquot is then removed and placed in a 50 ml. beaker containing 10 ml. of distilled water. This sample is then titrated using 0.01 N to Na H to pH 7.0 using a Beckman zeromatic pH meter. Volume, titratable acidity (meq/L) and total acid output (μeq/hour) are recorded. Percent inhibition is determined by comparison with the appropriate control. Groups of three rats are used for preliminary testing, and groups of six rats are used for dose-response evaluations. All compounds are administered in a vehicle consisting of 0.5% methocel, 0.4% tween 80, and saline at a constant volume of 1 ml./100 gram rat. Samples are dispersed by sonification. Percent inhibition is calculated on basis of concurrent vehicle control.
In Table III which follows is given the effect on total acid output after 60 minutes of a 10 mg./kg. intraduodenal dose of representative compounds of this invention.

In assay [2] the test system is basal gastric acid secretion. The description is as above. The format is in vivo, Female Sprague-Dawley rats. The settings on record: read-out: % Inhibition of Total Acid or Output; for inhibition in vivo at 0.63 mg/kg: intraduodenal 0.63 mg./kg.; for inhibition in vivo at 2.5 mg/kg: intraduodenal 2.5 mg./kg.
Assay [3] concerns bronchospasms elicited by histamine. The assay can be described thus: Bronchodilator Activity (Konzett Assays), histamine. The assay is classed as in vivo, guinea pigs. To be noted: Cavia porcellus; three logarithmic cumulative intravenous doses; spasmogen histamine; read-out: ED50, Spasmogenic Agent histamine. As to the method: (§1) The compounds of this invention are useful as bronchodilators for the treatment of asthma and chronic bronchitis. Bronchodilator activity is determined in guinea pigs against bronchospasms elicited by intravenous injections of 5-hydroxytryptamine, histamine or acetylcholine by the Konzett procedure. [See J. Lulling, P. Lievens, F. El Sayed and J. Prignot, Arzneimittel-Forschung, 18, 955 (1968).]
(§2) In Table IV which follows bronchodilator activity for representative compounds of this invention against one or more of three spasmogenic agents is expressed as an ED50 determined from the results obtained with three logarithmic cummulative intravenous doses. In this assay, these compounds of this invention provide an effect of longer duration than does natural l-PGE1 or l-PGE2.

The test system of assay [4] is bronchospasms elicited by acetylcholine. The assay can be described thus: Bronchodilator Activity (Konzett Assays), acetylcholine. The format is in vivo, guinea pigs. To be noted: Cavia porcellus; three logarithmic cumulative intravenous doses; spasmogen acetylcholine; read-out: ED50, Spasmogenic Agent Acetylcholine. As to the method:
as §1, §2

Assay [5] relates to bronchospasms elicited by 5-hydroxytryptamine. Description: Bronchodilator Activity (Konzett Assays), 5-hydroxytryptamine. The format is in vivo, guinea pigs. The settings on record: Cavia porcellus; three logarithmic cumulative intravenous doses; spasmogen 5-hydroxytryptamine; read-out: ED50, Spasmogenic Agent 5-hydroxytryptamine. As to the method: as §1, §2
In assay [6] the test system is mean arterial blood pressure. Description: Hypotensive Response (normotensive rat). The format is in vivo, Male Wistar strain rats. The settings on record: anesthetized rat. The procedure:
This procedure is a modification of the techniques described by Pike et al., Prostaglandins, Nobel Symposium 2, Stockholm, June, 1966; p. 165.
Male Wistar strain rats (Royal Hart Farms) averaging approximately 250 grams in weight were fastened to rat boards in a supine position by means of canvas vests and limb ties. The femoral area was infiltrated subcutaneously with lidocaine and the iliac artery and vein were exposed and cannulated. Arterial blood pressure (systolic/diastolic) was recorded using a Statham P23 Bb pressure transducer-Offner dynograph system. To obtain a stable blood pressure, the animals were anethetized before use with pentobarbital, 30 mg./kg. of body weight intravenously, and also were given hexamethoxium bitartrate, 2 mg./kg. of body weight intravenously. The test compounds were prepared by ultrasonic dispersion in a Saline-Tween 80® vehicle. A constant intravenous dose volume of 0.5 ml. was administered and test doses ranged from 0.1 to 10.0 mg./kg. of body weight.
In Table V below are recorded the percent decrease from normal of mean arterial blood pressure induced by given doses of representative compounds of this invention.

[7] abbreviates: 1 h, oral dose 10 mg./kg., after 60 minutes.

Like-named read-outs stand apart in the source and are kept apart here.

On to `CCCCCCCCCCOC(=O)CCC/C=C\C[C@H]1C(=O)C[C@@H](O)[C@@H]1/C=C/CC(O)CCCC` (relative stereo) [decyl 9-oxo-11α,16-dihydroxy-5-cis,13-trans-prostadienoate], for which, in assay [1], the inhibition in vivo at 10 mg/kg came out at 60%.
Regarding `CCCCC(O)C/C=C/[C@H]1[C@H](O)CC(=O)[C@@H]1C/C=C\CCCC(=O)OC` (relative stereo) [methyl 9-oxo-11α,16-dihydroxy-5-cis,13-trans-prostadienoate], the inhibition in vivo at 10 mg/kg in assay [1] is 100%. For the same compound, the inhibition in vivo at 0.625 mg/kg in assay [2] (1 h, oral dose 0.625 mg./kg., after 60 minutes) came to 51%. In addition, the inhibition in vivo at 1.25 mg/kg in assay [2] (1 h, oral dose 1.25 mg./kg., after 60 minutes) amounted to 75%.
Regarding `CCCCC(C/C=C/[C@H]1[C@H](OC2CCCCO2)CC(=O)[C@@H]1C/C=C\CCCC(=O)O)OC(c1ccccc1)(c1ccccc1)c1ccccc1` (relative stereo) [9-oxo-11α-tetrahydropyranyloxy-16-triphenylmethoxy-5-cis,13-trans-prostadienoic acid], the inhibition in vivo at 10 mg/kg in assay [1] amounted to 68%.
In the case of `CCCCCC(O)C/C=C/[C@H]1[C@H](O)CC(=O)[C@@H]1C/C=C\CCCC(=O)O` (relative stereo) [9-oxo-11α,16-dihydroxy-20-methyl-5-cis,13-trans-prostadienoic acid], the ED50 in assay [3] is 0.29 µg/kg; in assay [4], 0.72 µg/kg; in assay [5], 0.32 µg/kg. Moreover, the inhibition in vivo at 10 mg/kg in assay [1] was found to be 42%.
The matching figures for `CCCCC(O)C/C=C/[C@H]1C=CC(=O)[C@@H]1C/C=C\CCCC(=O)O` (relative stereo) [9-oxo-16-hydroxy-5-cis-10,13-trans-prostatrienoic acid]: 81 µg/kg, 1540 µg/kg, 125 µg/kg and 44%.
On to `CCCCCC(/C=C/[C@H]1[C@H](O)CC(=O)[C@@H]1C/C=C\CCCC(=O)O)CO` (relative stereo) [9-oxo-11α-hydroxy-15-hydroxymethyl-5-cis,13-trans-prostadienoic acid], for which, in assay [1], the inhibition in vivo at 10 mg/kg was determined as 5%.
`CCC/C=C/C(O)C/C=C/[C@H]1[C@H](O)CC(=O)[C@@H]1C/C=C\CCCC(=O)O` (relative stereo) [9-oxo-11α,16-dihydroxy-20-methyl-5-cis,13-trans,17-trans-prostatrienoic acid]: the median effective dose (ED50) in assay [3] stood at 2.2 µg/kg; in assay [4] it was 4 µg/kg; in assay [5], 1.2 µg/kg. For the same compound, the inhibition in vivo at 10 mg/kg in assay [1] came to 44%.
For the compound `CCCC(C)C(O)C/C=C/[C@H]1[C@H](O)CC(=O)[C@@H]1C/C=C\CCCC(=O)OC` (relative stereo) [methyl 9-oxo-11α,16-dihydroxy-17-methyl-5-cis,13-trans-prostadienoate], the “% Decrease in Mean Arterial Blood Pressure” value (“% Decrease” for short) in assay [6] (intravenous 1.2 mg./kg.) came out at 42%. For the same compound, in assay [1], the inhibition in vivo at 10 mg/kg was 76%.
`CCCC(C)C(O)C/C=C/[C@@H]1[C@@H](C/C=C\CCCC(=O)O)[C@@H](O)C[C@H]1O` (relative stereo) [9α,11α,16-trihydroxy-17-methyl-5-cis,13-trans-prostadienoic acid]: the inhibition in vivo at 10 mg/kg is 96% in assay [1] and 98% in assay [2] (2 h, intraduodenal 10 mg./kg., after 120 minutes). In addition, the inhibition in vivo at 0.63 mg/kg in assay [2] (1 h, after 60 minutes) worked out at 55%; in assay [2] (2 h, after 120 minutes), 47%. The inhibition in vivo at 2.5 mg/kg in assay [2] (1 h, after 60 minutes) stood at 66%; in assay [2] (2 h, after 120 minutes), 62%.
Consider `CCCCC(O)C/C=C/[C@@H]1[C@@H](C/C=C\CCCC(=O)O)[C@H](O)C[C@H]1O` (relative stereo) [9β,11α,16-trihydroxy-5-cis,13-trans-prostadienoic acid], for which the “% Decrease” value in assay [6] (intravenous 2.1 mg./kg.) amounted to 24%.
For `CCCC(C)C(O)C/C=C/[C@H]1[C@H](O)CC(=O)[C@@H]1C/C=C\CCCC(=O)O` (relative stereo) [9-oxo-11α,16-dihydroxy-17-methyl-5-cis,13-trans-prostadienoic acid], the ED50 in assay [3] was found to be 0.49 µg/kg; in assay [4] it was 3 µg/kg; in assay [5], 1.9 µg/kg. Besides, in assay [6] (intravenous 1.0 mg./kg.), the “% Decrease” value turned out to be 42%. The inhibition in vivo at 10 mg/kg came out at 93% in assay [1]; 89% in assay [2] (setting [7]); 85% in assay [2] (2 h, oral dose 10 mg./kg., after 120 minutes).
Regarding `CCC/C=C/C(O)C/C=C/[C@H]1C=CC(=O)[C@@H]1C/C=C\CCCC(=O)O` (relative stereo) [9-oxo-16-hydroxy-20-methyl-5-cis,10,13-trans,17-trans-prostatetraenoic acid], the figures for the 50% effective dose (ED50) in assay [3], in assay [4] and in assay [5] were 369 µg/kg, 2280 µg/kg and 625 µg/kg, respectively.
Consider `CC/C=C/C(O)C/C=C/[C@H]1C=CC(=O)[C@@H]1C/C=C\CCCC(=O)O` (relative stereo) [9-oxo-16-hydroxy-5-cis,10,13-trans,17-trans-prostatetraenoic acid], for which the values for the inhibition in vivo at 10 mg/kg in assay [1] and in assay [2] (setting [7]) were 83% and 43%, respectively.

The ED50 is the midpoint of the dose-response relation.
